Each structure is given as a SMILES string.

This assay deals with USP30 (Homo sapiens (Human), UniProt Q70CQ3). Description: USP30 Biochemical IC50 Assay. As to conditions: fluorescence polarisation, TAMRA labelled peptide linked to ubiquitin; 30 min pre-incubation, read after 2 h; read-out: IC50 range. As to the method: Reactions were performed in duplicate in black 384 well plates (small volume, Greiner 784076) in a final reaction volume of 21 μl. Either 1 μl of 50% DMSO or diluted compound was added to the plate. […] Enzyme and compound were incubated for 30 min at room temp. Reactions were initiated by the addition of 50 nM of TAMRA labelled peptide linked to ubiquitin via an iso-peptide bond as fluorescence polarisation substrate. Reactions were read immediately after addition of substrate and following a 2 h incubation at room temperature. Readings were performed on a Pherastar Plus (BMG Labtech). λ Excitation 540 nm; λ Emission 590 nm.
Sequence of USP30 (Q70CQ3 57-517): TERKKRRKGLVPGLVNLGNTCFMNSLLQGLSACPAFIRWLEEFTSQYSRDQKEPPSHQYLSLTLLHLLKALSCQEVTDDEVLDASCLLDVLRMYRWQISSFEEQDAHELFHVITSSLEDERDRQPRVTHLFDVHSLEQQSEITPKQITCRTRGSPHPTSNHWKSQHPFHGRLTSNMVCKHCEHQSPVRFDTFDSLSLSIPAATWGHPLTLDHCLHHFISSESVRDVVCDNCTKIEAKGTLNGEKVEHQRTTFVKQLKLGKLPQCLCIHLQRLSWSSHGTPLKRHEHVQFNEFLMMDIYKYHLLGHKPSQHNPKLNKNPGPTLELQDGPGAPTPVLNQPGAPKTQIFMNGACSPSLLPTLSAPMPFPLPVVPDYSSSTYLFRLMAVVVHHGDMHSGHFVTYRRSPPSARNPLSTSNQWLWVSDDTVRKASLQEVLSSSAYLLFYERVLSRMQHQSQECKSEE
Background: Polarisation of emitted light reports the rotation of a fluorescent probe.
The IC50 is the concentration at which inhibition is half-maximal. `N#CN1CCC(c2noc(-c3ccc(-c4ccccc4)[nH]c3=O)n2)C1` (stereo not shown) [Example 52, 3-(5-(2-Oxo-6-phenyl-1,2-dihydropyridin-3-yl)-1,2,4-oxadiazol-3-yl)pyrrolidine-1-carbonitrile]: the IC50 was in the range of 1000 to 10000 nM. As to `N#Cc1cccc(-c2cc(-c3nc(C4CCCN4C#N)no3)ncn2)c1` (stereo not shown) [Example 189, 2-(5-(6-(3-Cyanophenyl)pyrimidin-4-yl)-1,2,4-oxadiazol-3-yl)pyrrolidine-1-carbonitrile], the IC50 was 100 to 1000 nM. As for `C[C@@H]1CN(C#N)C[C@H]1c1n[nH]c(-c2cccc(-c3ccccc3)c2)n1` (relative stereo) [Example 114, Trans-3-(3-([1,1′-biphenyl]-3-yl)-1H-1,2,4-triazol-5-yl)-4-methylpyrrolidine-1-carbonitrile], the figure is below 100 nM. As to `CS(=O)(=O)c1ccc(-c2cccc(-c3nc(C4CCCN4C#N)no3)c2)cc1` (stereo not shown) [Example 153, 2-(5-(4′-(Methylsulfonyl)-[1,1′-biphenyl]-3-yl)-1,2,4-oxadiazol-3-yl)pyrrolidine-1-carbonitrile], the IC50 is 100 to 1000 nM. Consider `N#Cc1cnn(-c2ccnc(-c3nc([C@@H]4CCCN4C#N)no3)c2)c1` [Example 191, (S)-1-(2-(3-(1-Cyanopyrrolidin-2-yl)-1,2,4-oxadiazol-5-yl)pyridin-4-yl)-1H-pyrazole-4-carbonitrile], for which the concentration for half-maximal inhibition (IC50) was in the range of 1000 to 10000 nM. Turning to `N#CN1CCC(c2nnc(-c3ccccc3)[nH]2)C1` (stereo not shown) [Example 106, 3-(5-Phenyl-4H-1,2,4-triazol-3-yl)pyrrolidine-1-carbonitrile], the IC50 fell in the range of 1000 to 10000 nM. Consider `N#CN1CCC(c2nc3cc(-c4cn[nH]c4)cnc3[nH]2)C1` (stereo not shown) [Example 88, 3-(6-(1H-Pyrazol-4-yl)-3H-imidazo[4,5-b]pyridin-2-yl)pyrrolidine-1-carbonitrile], for which the IC50 lay within 1000 to 10000 nM. Take `N#CN1CCC(c2noc(C3CCN(c4ccccc4)C3)n2)C1` (stereo not shown) [Example 69, 3-(5-(1-Phenylpyrrolidin-3-yl)-1,2,4-oxadiazol-3-yl)pyrrolidine-1-carbonitrile]: the IC50 lay within 100 to 1000 nM. As to `N#CN1CCCC1c1noc(-c2ccnc(-c3ccccc3)c2)n1` (stereo not shown) [Example 167], the IC50 is 100 to 1000 nM.

Regarding `CC(=O)Nc1cccc(-c2cc(C3CCN(C#N)C3)[nH]n2)c1` (stereo not shown) [Example 7, N-(3-(5-(1-Cyanopyrrolidin-3-yl)-1H-pyrazol-3-yl)phenyl)acetamide], the concentration for half-maximal inhibition (IC50) lay within 1000 to 10000 nM. Consider `N#CN1CCC(c2nnc(-c3ccc4nc[nH]c4c3)[nH]2)C1` (stereo not shown) [Example 107, 3-(5-(1H-Benzo[d]imidazol-6-yl)-4H-1,2,4-triazol-3-yl)pyrrolidine-1-carbonitrile], for which the IC50 is 1000 to 10000 nM. Consider `N#CN1CCC(c2cc(-c3cccc(C(N)=O)c3)n[nH]2)C1` (stereo not shown) [Example 6, 3-(5-(1-Cyanopyrrolidin-3-yl)-1H-pyrazol-3-yl)benzamide], for which the IC50 was 1000 to 10000 nM.

Regarding `N#Cc1cccc(-c2ccc3oc([C@@H]4CCCN4C#N)nc3c2)c1F` [Example 137, (S)-2-(5-(3-Cyano-2-fluorophenyl)-benzo[d]oxazol-2-yl)pyrrolidine-1-carbonitrile], the IC50 was in the range of 1000 to 10000 nM.

Take `Cc1cccc2cc(-c3cccc(-c4nc(C5CCCN5C#N)no4)c3)[nH]c12` (stereo not shown) [Example 165, 2-(5-(3-(7-Methyl-1H-indo1-2-yl)phenyl)-1,2,4-oxadiazol-3-yl)pyrrolidine-1-carbonitrile]: the IC50 lay in the range of 100 to 1000 nM. In the case of `Cn1cc(-c2cc(-c3nc([C@@H]4CCN(C#N)C4)no3)ccc2F)cn1` [Example 70, (R)-3-(5-(4-Fluoro-3-(1-methyl-1H-pyrazol-4-yl)phenyl)-1,2,4-oxadiazol-3-yl)pyrrolidine-1-carbonitrile], the IC50 lay in the range of 100 to 1000 nM. In the case of `CCc1cccc(-c2ccc3oc([C@@H]4CCCN4C#N)nc3c2)c1` [Example 129, (S)-2-(5-(3-Ethylphenyl)benzo[d]oxazol-2-yl)pyrrolidine-1-carbonitrile], the IC50 was in the range of 100 to 1000 nM. For `CC(C)Cn1cc(-c2ccc3nc(C4CCN(C#N)C4)[nH]c3c2)cn1` (stereo not shown) [Example 78, 3-(6-(1-Isobutyl-1H-pyrazol-4-yl)-1H-benzo[d]imidazol-2-yl)pyrrolidine-1-carbonitrile], the IC50 lay in the range of 1000 to 10000 nM. As for `Cc1c(-c2ccccc2)cnc2nc(C3CCN(C#N)C3)[nH]c12` (stereo not shown) [Example 100, 3-(7-Methyl-6-phenyl-3H-imidazo[4,5-b]pyridin-2-yl)pyrrolidine-1-carbonitrile], the figure is 100 to 1000 nM; as for `Cc1cn(-c2ccc3n(c2=O)CCN([C@@H]2CCN(C#N)C2)C3=O)cn1` [Example 121, (R)-3-(7-(4-Methyl-1H-imidazol-1-yl)-1,6-dioxo-1,3,4,6-tetrahydro-2H-pyrido[1,2-a]pyrazin-2-yl)pyrrolidine-1-carbonitrile], 1000 to 10000 nM. Regarding `N#CN1CCC(c2nc3ccc(-c4ccccc4)nc3[nH]2)C1` (stereo not shown) [Example 97, 3-(5-Phenyl-3H-imidazo[4,5-b]pyridin-2-yl)pyrrolidine-1-carbonitrile], the IC50 was 1000 to 10000 nM. As for `COc1cc(-c2nc([C@@H]3CCN(C#N)C3)no2)ccc1-c1cnn(C)c1` [Example 71, (R)-3-(5-(3-Methoxy-4-(1-methyl-1H-pyrazol-4-yl)phenyl)-1,2,4-oxadiazol-3-yl)pyrrolidine-1-carbonitrile], the half-inhibitory concentration (IC50) was 100 to 1000 nM.

As to `N#CN1CCC(c2cc(-c3cccc(-c4ccccc4)c3)no2)C1` (stereo not shown) [Example 117, 3-(3-([1,1′-Biphenyl]-3-yl)isoxazol-5-yl)pyrrolidine-1-carbonitrile], the IC50 is below 100 nM. With `N#CN1CCC(c2n[nH]c(-c3cc(-c4ccccc4)ccn3)n2)C1` (stereo not shown) [Example 109, 3-(5-(4-Phenylpyridin-2-yl)-4H-1,2,4-triazol-3-yl)pyrrolidine-1-carbonitrile], the IC50 is 100 to 1000 nM.

Regarding `N#CN1CCC[C@H]1c1nc2cc(-c3cccc([N+](=O)[O-])c3)ccc2o1` [Example 136, (S)-2-(5-(3-Nitrophenyl)benzo[d]oxazol-2-yl)pyrrolidine-1-carbonitrile], the IC50 fell in the range of 100 to 1000 nM.

Turning to `N#CN1CCC(c2cc(NC(=O)Cc3ccccc3)n[nH]2)C1` (stereo not shown) [Example 51], the IC50 is 100 to 1000 nM. Take `C[C@H]1CN(C#N)C[C@@H]1c1nc2cc(-c3ccccc3)ccc2[nH]1` (single isomer, unassigned) [Example 104, Trans-3-methyl-4-(5-phenyl-1H-benzo[d]imidazol-2-yl)pyrrolidine-1-carbonitrile]: the IC50 fell in the range of 100 to 1000 nM.

For `CNC(=O)c1ccc(-c2cc(C3CCN(C#N)C3)[nH]n2)cn1` (stereo not shown) [Example 3, 5-(5-(1-Cyanopyrrolidin-3-yl)-1H-pyrazol-3-yl)-N-methylpicolinamide], the IC50 was in the range of 1000 to 10000 nM.

Regarding `N#CN1CCC(c2[nH]nc(-c3cccc(-c4ccccc4)c3)c2F)C1` (stereo not shown) [Example 15, 3-(3-([1,1′-Biphenyl]-3-yl)-4-fluoro-1H-pyrazol-5-yl)pyrrolidine-1-carbonitrile], the IC50 is below 100 nM. `N#CN1CCC(c2cc(-c3ccc4ccccc4c3)n[nH]2)C1` (stereo not shown) [Example 18, 3-(3-(Naphthalen-2-yl)-1H-pyrazol-5-yl)pyrrolidine-1-carbonitrile]: the IC50 is 100 to 1000 nM.

As for `N#Cc1ccc2ccc(-c3nc([C@@H]4CCCN4C#N)no3)cc2c1` [Example 178, (S)-2-(5-(7-Cyanonaphthalen-2-yl)-1,2,4-oxadiazol-3-yl)pyrrolidine-1-carbonitrile], the IC50 fell in the range of 100 to 1000 nM. As for `N#Cc1ccc(-c2cc(-c3nc([C@@H]4CCCN4C#N)no3)ccn2)cc1` [Example 177, (S)-2-(5-(2-(4-Cyanophenyl)pyridin-4-yl)-1,2,4-oxadiazol-3-yl)pyrrolidine-1-carbonitrile], the figure is 100 to 1000 nM.

Regarding `N#Cc1cc(-c2cccc(-c3nc([C@@H]4CCCN4C#N)no3)n2)ccn1` [Example 183, (S)-6-(3-(1-Cyanopyrrolidin-2-yl)-1,2,4-oxadiazol-5-yl)-[2,4′-bipyridine]-2 carbonitrile], the IC50 is below 100 nM. On to `Cn1ncc2cc(-c3cccc(-c4nc(C5CCCN5C#N)no4)c3)ccc21` (stereo not shown) [Example 151], for which the IC50 lay within 100 to 1000 nM. As for `N#CN1CCC(c2cc(-c3cccc(-c4ccncc4)c3)n[nH]2)C1` (stereo not shown) [Example 28, 3-(3-(3-(Pyridin-4-yl)phenyl)-1H-pyrazol-5-yl)pyrrolidine-1-carbonitrile], the figure is 100 to 1000 nM; as for `N#CN1CCC(c2n[nH]c(-c3cccc(-c4ccccc4)c3)n2)C1` (stereo not shown) [Example 111, 3-(3-([1,1′-Biphenyl]-3-yl)-1H-1,2,4-triazol-5-yl)pyrrolidine-1-carbonitrile], below 100 nM. On to `N#CN1CCC(c2noc(-c3cc(Cl)cc(OC(F)(F)F)c3)n2)C1` (stereo not shown) [Example 57, 3-(5-(3-Chloro-5-(trifluoromethoxy)phenyl)-1,2,4-oxadiazol-3-yl)pyrrolidine-1-carbonitrile], for which the IC50 was in the range of 100 to 1000 nM. As for `CC[C@@H]1CN(C#N)C[C@H]1c1cc(-c2cccc(-c3ccccc3)c2)n[nH]1` (single isomer, unassigned) [Example 45, Trans-3-(3-([1,1′-biphenyl]-3-yl)-1H-pyrazol-5-yl)-4-ethylpyrrolidine-1-carbonitrile], the figure is 100 to 1000 nM; as for `C[C@@H]1CN(C#N)C[C@H]1c1n[nH]c(-c2cccc(-c3ccccc3)c2)n1` (single isomer, unassigned) [Example 116, Trans-3-(3-([1,1′-biphenyl]-3-yl)-1H-1,2,4-triazol-5-yl)-4-methylpyrrolidine-1-carbonitrile], 100 to 1000 nM; as for `N#CN1CCC(c2noc(-c3cccc(-c4ccccc4)c3)n2)C1` (stereo not shown) [Example 55], below 100 nM. Consider `C[C@@H]1CN(C#N)C[C@H]1c1cc(-c2cccc(-c3ccccc3)c2)n(C)n1` [Example 25], for which the IC50 was in the range of 100 to 1000 nM.
